Numbered stars: 1 amine (or outer) side, 2 acyl side, 3 side chain; on linkers, the order of the positions; unused ones are H or OH. Bridge positions count the residues as written; N and C are the ends. Square brackets hold non-standard residues; d marks the D form. Peptide text beside a SMILES is read from it. Trp(βS-Me,7-OMe) = COc1cccc2c([C@H](C)[C@H](N)C(=O)O)c[nH]c12; X12 = C[C@@H](c1ccc(O)cc1)[C@H](N[*:1])C(=O)[*:2]; Trp(7-Cl) = N[C@@H](Cc1c[nH]c2c(Cl)cccc12)C(=O)O; X8 = O=C([C@@H]1C[C@@H](O)[C@H](N[*:1])C1)[*:2]; Phe(4-CONH2) = NC(=O)c1ccc(C[C@H](N)C(=O)O)cc1; Phe(4-COOH) = N[C@@H](Cc1ccc(C(=O)O)cc1)C(=O)O; Trp(7-aza) = N[C@@H](Cc1c[nH]c2ncccc12)C(=O)O; Phe(4-CH2NH2) = NCc1ccc(C[C@H](N)C(=O)O)cc1; Pip(5R-OH) = O=C(O)[C@@H]1CC[C@@H](O)CN1; X1 = O=C([C@@H]1CC[C@H](N[*:1])C1)[*:2]; X38 = CC(C)(CO)CN(CC(=O)[*:2])[*:1]; Pip(4-aza) = O=C(O)[C@@H]1CNCCN1; 4Pal = N[C@@H](Cc1ccncc1)C(=O)O; NMeE = CN[C@@H](CCC(=O)O)C(=O)O; NMehSer = CN[C@@H](CCO)C(=O)O; Pip = O=C(O)[C@@H]1CCCCN1; αMeS = C[C@](N)(CO)C(=O)O; Nle = CCCC[C@H](N)C(=O)O; Nme = COCCNCC(=O)O; Sar = CNCC(=O)O
Assays:
[1] = biological target: T1, human TNFR1 extracellular domain (ECD) protein (Homo sapiens, UniProt P19438); test: SPR binding affinity to captured human TNFR1 ECD
T1 construct: HRV 3C protease cleavage site (C); 6His (C, cleaved yes); made in house; host or cells: Sf21 insect cells (baculovirus), secreted
T1 sequence (P19438 30-211): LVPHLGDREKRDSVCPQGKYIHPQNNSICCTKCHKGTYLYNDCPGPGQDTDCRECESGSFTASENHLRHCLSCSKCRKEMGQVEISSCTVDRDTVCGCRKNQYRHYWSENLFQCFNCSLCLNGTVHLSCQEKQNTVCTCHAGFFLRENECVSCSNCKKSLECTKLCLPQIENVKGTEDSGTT
Experimental: (§1) B. Procedure for Binding Affinity and Selectivity measured by SPR
(§2) Affinity and selectivity for hTNFR1 and TNFR2 was determined using SPR. Human TNFR1 or TNFR2 genes (extracellular domain only) were synthesized with a C-terminal Avi-tag, HRV 3C protease cleavage site followed by a 6His-tag for affinity purification. The final gene product was cloned into pBAC™-1 vector (Millipore Sigma) for expression testing in insect cells. Constructs were transfected into Sf21 cells for baculovirus generation followed by protein expression analysis in Sf21 and Tni cell lines. Large scale expression in Sf21 cells was performed using baculovirus infected insect cells (BIICs) infected at a MOI=2.0 grown for 72 h. Target proteins secreted into the media were harvested via centrifugation and concentrated using diafiltration. TNFR was purified by immobilized metal ion affinity chromatography (IMAC) using a Ni-Sepharose HisTrap™ column (Cytiva™). Isolated TNFR had His tag removed using HRV 3C protease followed by additional purification using Ni-NTA chromatography. Biotinylation was performed on Ni-NTA flow-through fractions concentrated to 45 μM and treated with BirA ligase (1:100, μg/μg ratio) in 50 mM Tris pH 7.5, 150 mM NaCl, 50 μM biotin, 10 mM magnesium acetate, 10 mM ATP at 4° C. for 20 h. Final purification of biotin-TNFR and buffer exchange into 20 mM HEPES pH 7.5, 150 mM NaCl was performed using a HiLoad® Superdex® 200 26/60 column (Cytiva™). Highly purified protein was aliquoted and stored at −80° C.
(§3) The SPR assay uses a Cytiva™ 8K or 8K+ biosensor instrument to measure the kinetics of peptide analytes binding to captured human TNFR1 extracellular domain (ECD) protein; peptide analytes are also evaluated for any off-target binding to human TNFR2 ECD protein in parallel. Recombinant human TNFR1 ECD and human TNFR2 ECD proteins, biotinylated via engineered C-terminal avi-tags, are immobilized to a regenerable streptavidin biosensor chip surface (Cytiva™ Biotin CAPture kit, Series S; cat. #28920234). Peptide analytes binding to immobilized human TNFR1 ECD protein and their subsequent dissociation are conducted in a buffer of 10 mM HEPES pH 7.4, 150 mM NaCl, 3 mM EDTA, 0.05% P20,2% DMSO under laminar flow conditions and measured in response units (RU), which are directly proportional to the accumulated mass on the surface of the biosensor chip; the biosensor chip surface is regenerated via Cytiva™ proprietary methods between the evaluation of each peptide analyte. […] The SPR assay determines the association and dissociation rate constants, kon and koff, for each peptide analyte and, from these values, calculates the binding affinity, […] reported in Table 2.

[2] = biological target: T2, human TNFR2 ECD protein (Homo sapiens, UniProt P20333); test: SPR off-target binding (selectivity) to human TNFR2 ECD
T2 construct: HRV 3C protease cleavage site (C); 6His (C, cleaved yes); made in house; host or cells: Sf21 insect cells (baculovirus), secreted
T2 sequence (P20333 23-257): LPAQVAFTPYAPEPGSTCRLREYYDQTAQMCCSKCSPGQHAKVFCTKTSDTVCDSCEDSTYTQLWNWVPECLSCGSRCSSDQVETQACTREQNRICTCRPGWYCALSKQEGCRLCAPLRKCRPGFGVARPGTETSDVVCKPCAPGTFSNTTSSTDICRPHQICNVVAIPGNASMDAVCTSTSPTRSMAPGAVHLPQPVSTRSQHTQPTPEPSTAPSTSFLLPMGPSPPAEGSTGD
Experimental: as §1, §2, §3

[3] = biological target: T3, TNFα-induced NF-κB signal transduction pathway (TNFR1 signaling) in THP-1 cells (Homo sapiens, UniProt P19438); test: THP-1 Lucia NF-κB reporter cell assay, inhibition of TNFα-induced NF-κB signaling; assay type: cell-based; conditions: THP-1 NF-κB Lucia reporter cells, 10 ng/mL TNFα, 16-18 h, secreted luciferase; read-out: THP-1 IC50
T3 sequence (P19438 30-455): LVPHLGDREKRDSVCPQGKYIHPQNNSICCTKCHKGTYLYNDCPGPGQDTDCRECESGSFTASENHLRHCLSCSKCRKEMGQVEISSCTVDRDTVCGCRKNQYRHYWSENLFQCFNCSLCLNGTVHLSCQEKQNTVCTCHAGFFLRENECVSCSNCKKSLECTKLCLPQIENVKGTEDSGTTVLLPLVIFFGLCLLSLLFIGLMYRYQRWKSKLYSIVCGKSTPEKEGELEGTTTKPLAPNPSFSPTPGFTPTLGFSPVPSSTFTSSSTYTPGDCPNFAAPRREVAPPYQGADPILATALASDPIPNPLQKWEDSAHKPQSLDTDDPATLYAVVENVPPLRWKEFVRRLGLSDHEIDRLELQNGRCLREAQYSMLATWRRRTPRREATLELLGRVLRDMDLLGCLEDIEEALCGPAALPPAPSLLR
Outline: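 Macrocyclic peptides were preincubated 1 h at 37 °C with THP-1 NF-κB-Lucia reporter cells (20,000 cells/well) in antibiotic-free RPMI 1640/10% FBS, then stimulated with 10 ng/mL human TNFα overnight (16-18 h). Secreted luciferase in supernatant was read by luminescence; IC50 from 4-parameter logistic fits.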

## CCCC[C@@H]1NC(=O)CSC[C@@H](C(N)=O)NC(=O)[C@H]([C@@H](C)c2c[nH]c3c(OC)cccc23)NC(=O)CN(C)C(=O)[C@H](Cc2ccc(O)cc2)NC(=O)[C@H](Cc2ccc(C(=O)O)cc2)NC(=O)[C@](C)(CO)NC(=O)[C@H](Cc2c[nH]c3c(Cl)cccc23)NC(=O)[C@H](Cc2ccncc2)NC(=O)[C@H](CC(N)=O)NC(=O)[C@H](CCC(=O)O)N(C)C(=O)[C@H](Cc2c[nH]c3ncccc23)NC(=O)[C@H](CO)NC(=O)[C@H]([C@@H](C)c2ccc(O)cc2)NC1=O [SEQ ID NO. 46] ({CH2CO}-[Nle][X12]S[Trp(7-aza)][NMeE]N[4Pal][Trp(7-Cl)][αMeS][Phe(4-COOH)]Y[Sar][Trp(βS-Me,7-OMe)]C-NH2; thioether N-14)
[1]
  Kd: 0.07 nM
[2]
  Kd: > 1000 nM
[3]
  IC50: 3 nM

## CCCC[C@@H]1NC(=O)CSC[C@@H](C(N)=O)NC(=O)[C@H]([C@@H](C)c2c[nH]c3c(OC)cccc23)NC(=O)CN(C)C(=O)[C@H](Cc2ccc(O)cc2)NC(=O)[C@H](Cc2ccc(C(=O)O)cc2)NC(=O)[C@](C)(CO)NC(=O)[C@H](Cc2c[nH]c3c(Cl)cccc23)NC(=O)[C@H](Cc2ccncc2)NC(=O)[C@H](CC(N)=O)NC(=O)[C@H](CCC(=O)O)N(C)C(=O)[C@H](Cc2c[nH]c3ncccc23)NC(=O)[C@H](CCOC)N(C)C(=O)[C@H](Cc2ccncc2)NC1=O [SEQ ID NO. 99] ({CH2CO}-[Nle][4Pal][NMehSer](Me)[Trp(7-aza)][NMeE]N[4Pal][Trp(7-Cl)][αMeS][Phe(4-COOH)]Y[Sar][Trp(βS-Me,7-OMe)]C-NH2; thioether N-14)
[1]
  Kd: 0.15 nM
[2]
  Kd: > 1000 nM
[3]
  IC50: 3.7 nM

## CCCC[C@@H]1NC(=O)[C@@H]2CC[C@@H](C2)NC(=O)[C@H]([C@@H](C)c2c[nH]c3c(OC)cccc23)NC(=O)CN(C)C(=O)[C@H](Cc2ccc(O)cc2)NC(=O)[C@H](Cc2ccc(C(=O)O)cc2)NC(=O)[C@](C)(CO)NC(=O)[C@H](Cc2c[nH]c3c(Cl)cccc23)NC(=O)[C@H](Cc2ccncc2)NC(=O)[C@H](CC(N)=O)NC(=O)CN(CCOC)C(=O)[C@H](Cc2c[nH]c3ccccc23)NC(=O)[C@@H]2CNCCN2C(=O)[C@H](Cc2ccncc2)NC1=O [SEQ ID NO. 82] (cyclo([4Pal][Trp(7-Cl)][αMeS][Phe(4-COOH)]Y[Sar][Trp(βS-Me,7-OMe)][X1][Nle][4Pal][Pip(4-aza)]W[Nme]N))
[1]
  Kd: 0.07 nM
[2]
  Kd: > 1000 nM

## CCCC[C@@H]1NC(=O)CSC[C@@H](C(N)=O)NC(=O)[C@H]([C@@H](C)c2c[nH]c3c(OC)cccc23)NC(=O)CN(C)C(=O)[C@H](Cc2ccc(C(N)=O)cc2)NC(=O)[C@H](Cc2ccc(C(=O)O)cc2)NC(=O)[C@](C)(CO)NC(=O)[C@H](Cc2c[nH]c3c(Cl)cccc23)NC(=O)[C@H](Cc2ccncc2)NC(=O)[C@H](CC(N)=O)NC(=O)[C@H](CCC(=O)O)N(C)C(=O)[C@H](Cc2c[nH]c3ccccc23)NC(=O)[C@@H]2CNCCN2C(=O)[C@H](Cc2ccncc2)NC1=O [SEQ ID NO. 124] ({CH2CO}-[Nle][4Pal][Pip(4-aza)]W[NMeE]N[4Pal][Trp(7-Cl)][αMeS][Phe(4-COOH)][Phe(4-CONH2)][Sar][Trp(βS-Me,7-OMe)]C-NH2; thioether N-14)
[1]
  Kd: 0.12 nM
[2]
  Kd: > 1000 nM

## CCCC[C@@H]1NC(=O)CSC[C@@H](C(N)=O)NC(=O)[C@H]([C@@H](C)c2c[nH]c3c(OC)cccc23)NC(=O)CN(C)C(=O)[C@H](Cc2ccc(O)cc2)NC(=O)[C@H](Cc2ccc(C(=O)O)cc2)NC(=O)[C@](C)(CO)NC(=O)[C@H](Cc2c[nH]c3c(Cl)cccc23)NC(=O)[C@H](Cc2ccc(CN)cc2)NC(=O)[C@H](CC(N)=O)NC(=O)[C@H](CCC(=O)O)N(C)C(=O)[C@H](Cc2c[nH]c3ccccc23)NC(=O)[C@@H]2CC[C@@H](O)CN2C(=O)[C@H](Cc2ccncc2)NC1=O [SEQ ID NO. 96] ({CH2CO}-[Nle][4Pal][Pip(5R-OH)]W[NMeE]N[Phe(4-CH2NH2)][Trp(7-Cl)][αMeS][Phe(4-COOH)]Y[Sar][Trp(βS-Me,7-OMe)]C-NH2; thioether N-14)
[2]
  Kd: > 1000 nM
[3]
  IC50: 1.6 nM

## CCCC[C@@H]1NC(=O)CSC[C@@H](C(N)=O)NC(=O)[C@H]([C@@H](C)c2c[nH]c3c(OC)cccc23)NC(=O)CN(C)C(=O)[C@H](Cc2ccc(O)cc2)NC(=O)[C@H](Cc2ccc(C(=O)O)cc2)NC(=O)[C@](C)(CO)NC(=O)[C@H](Cc2c[nH]c3c(Cl)cccc23)NC(=O)[C@H](Cc2ccncc2)NC(=O)[C@H](CC(N)=O)NC(=O)CN(CC(C)(C)CO)C(=O)[C@H](Cc2c[nH]c3ncccc23)NC(=O)[C@@H]2CCCCN2C(=O)[C@H](Cc2ccncc2)NC1=O [SEQ ID NO. 61] ({CH2CO}-[Nle][4Pal][Pip][Trp(7-aza)][X38]N[4Pal][Trp(7-Cl)][αMeS][Phe(4-COOH)]Y[Sar][Trp(βS-Me,7-OMe)]C-NH2; thioether N-14)
[2]
  Kd: > 1000 nM
[3]
  IC50: 3.6 nM

## CCCC[C@@H]1NC(=O)[C@@H]2C[C@@H](O)[C@@H](C2)NC(=O)[C@H]([C@@H](C)c2c[nH]c3c(OC)cccc23)NC(=O)CN(C)C(=O)[C@H](Cc2ccc(O)cc2)NC(=O)[C@H](Cc2ccc(C(=O)O)cc2)NC(=O)[C@](C)(CO)NC(=O)[C@H](Cc2c[nH]c3c(Cl)cccc23)NC(=O)[C@H](Cc2ccncc2)NC(=O)[C@H](CC(N)=O)NC(=O)[C@H](CCC(=O)O)N(C)C(=O)[C@H](Cc2c[nH]c3ccccc23)NC(=O)[C@@H]2CNCCN2C(=O)[C@H](Cc2ccncc2)NC1=O [SEQ ID NO. 34] (cyclo([4Pal][Trp(7-Cl)][αMeS][Phe(4-COOH)]Y[Sar][Trp(βS-Me,7-OMe)][X8][Nle][4Pal][Pip(4-aza)]W[NMeE]N))
[2]
  Kd: > 1000 nM
[3]
  IC50: 0.7 nM

## CCCC[C@@H]1NC(=O)CSC[C@@H](C(N)=O)NC(=O)[C@H]([C@@H](C)c2c[nH]c3c(OC)cccc23)NC(=O)CN(C)C(=O)[C@H](Cc2ccc(O)cc2)NC(=O)[C@H](Cc2ccc(C(=O)O)cc2)NC(=O)[C@](C)(CO)NC(=O)[C@H](Cc2c[nH]c3c(Cl)cccc23)NC(=O)[C@H](Cc2ccncc2)NC(=O)[C@H](CC(N)=O)NC(=O)CN(CCOC)C(=O)[C@H](Cc2c[nH]c3ncccc23)NC(=O)[C@@H]2CCCCN2C(=O)[C@H](Cc2ccncc2)NC1=O [SEQ ID NO. 62] ({CH2CO}-[Nle][4Pal][Pip][Trp(7-aza)][Nme]N[4Pal][Trp(7-Cl)][αMeS][Phe(4-COOH)]Y[Sar][Trp(βS-Me,7-OMe)]C-NH2; thioether N-14)
[2]
  Kd: > 1000 nM
[3]
  IC50: 4.4 nM
